Test results as given in patent US9029337B2, “Modulation of factor 7 expression” (Isis Pharmaceuticals, Inc., priority 2007, dated 2015).
Strand notation (5' to 3'): a small letter for the sugar, then the base; units joined by * are phosphorothioate-linked, units joined directly phosphodiester-linked; [ ] holds rarer units or linkages, { } end groups; capitals alone tell only the bases. e = 2'-O-(2-methoxyethyl) (MOE); [5mC] = 5-methylcytosine; d = 2'-deoxy (DNA)

tested on: human Factor 7 mRNA; assay: Antisense inhibition of human Factor 7 mRNA in HepB3 cells, 50 nM antisense oligonucleotide, lipofectin; assay type: cell-based; conditions: Table 1, 50 nM, lipofectin, approximately 24 hours, relative to untreated control cells
Outline: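 Percent inhibition of Factor 7 mRNA, relative to untreated control, comes from real-time RT-PCR with RIBOGREEN normalization, using primer probe set RTS 2927 in some runs. RNA was taken roughly 24 h after lipofectin delivery of 50 nM oligonucleotide into HepB3 cells.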

Substance	% Inhibition
407934 (antisense e[5mC]*eT*eG*eA*eA*dG*dT*dG*dA*dA*dG*dA*dT*dG*dA*eT*eA*eA*eT*eG) [compound 407934]	45%
407601 (antisense e[5mC]*eA*eG*e[5mC]*e[5mC]*d[5mC]*dT*dG*dA*dA*dG*d[5mC]*d[5mC]*d[5mC]*dA*eA*eG*e[5mC]*eA*eG) [compound 407601]	52%
407932 (antisense eG*eA*eA*e[5mC]*e[5mC]*dA*dG*dA*dA*dA*dA*dG*dT*dG*dA*eG*eA*eG*e[5mC]*eT) [compound 407932]	55%
407917 (antisense eA*e[5mC]*eA*e[5mC]*e[5mC]*d[5mC]*d[5mC]*dA*dA*dA*dG*dT*dG*dG*d[5mC]*e[5mC]*e[5mC]*eA*e[5mC]*eG) [compound 407917]	70%
407652 (antisense eT*eG*eG*eG*eA*dG*d[5mC]*dT*dA*d[5mC]*dA*dG*d[5mC]*d[5mC]*dT*e[5mC]*eA*eA*eA*e[5mC]) [compound 407652]	30%
407893 (antisense eT*e[5mC]*eG*eA*eA*dG*dG*d[5mC]*dA*dG*dG*dG*dA*dG*dG*e[5mC]*eA*eG*eA*eA) [compound 407893]	33%
407629 (antisense eT*e[5mC]*eA*eG*eT*dG*dA*dG*dG*dA*d[5mC]*d[5mC]*dA*d[5mC]*dG*eG*eG*e[5mC]*eT*eG) [compound 407629]	34%
407616 (antisense eT*eG*e[5mC]*eA*eG*dG*dA*d[5mC]*dA*d[5mC]*d[5mC]*d[5mC]*d[5mC]*dG*dT*e[5mC]*eT*eG*e[5mC]*e[5mC]) [compound 407616]	64%

same assay, conditions: Table 6, 50 nM, lipofectin, approximately 24 hours

Substance	% Inhibition
422265 (antisense eG*e[5mC]*dG*dG*dA*dA*dG*dA*dA*dG*dG*dG*dA*d[5mC]*dG*eG*eA*eA*eG*eG) [compound 422265]	34%

same assay, conditions: Table 13 (microwalk), 50 nM, lipofectin, approximately 24 hours

Substance	% Inhibition
422226 (antisense e[5mC]*eA*dT*dG*dG*dT*dG*dA*dT*dG*d[5mC]*dT*dT*d[5mC]*dT*eG*eA*eA*eT*eT) [compound 422226]	41%
422085 (antisense eG*e[5mC]*eA*eT*eG*dG*dT*dG*dA*dT*dG*d[5mC]*dT*dT*d[5mC]*eT*eG*eA*eA*eT) [compound 422085]	70%

same assay, conditions: gapmers targeted to nucleobases 4868 to 4899 of SEQ ID NO: 1, Table 8

Substance	% Inhibition of human Factor 7 mRNA levels
422293 (antisense eA*eG*dT*dT*d[5mC]*dT*dG*d[5mC]*dA*dG*dG*dA*dG*d[5mC]*dG*eG*e[5mC]*e[5mC]*eT*eA) [compound 422293]	69%
422138 (antisense eT*e[5mC]*eT*eG*e[5mC]*dA*dG*dG*dA*dG*d[5mC]*dG*dG*d[5mC]*d[5mC]*eT*eA*eA*eA*eT) [compound 422138]	70%

same assay, conditions: lipofectin, 50 nM antisense oligonucleotide, approximately 24 hours, Factor 7 mRNA by real-time RT-PCR (RTS 2927), relative to untreated control

Substance	% Inhibition
416432 (antisense eA*eG*e[5mC]*eA*e[5mC]*dT*dG*d[5mC]*dT*d[5mC]*d[5mC]*dT*d[5mC]*d[5mC]*dT*eT*eG*e[5mC]*eA*e[5mC]) [compound 416432]	44%
416443 (antisense eG*eA*eG*eG*e[5mC]*dA*dG*dA*dA*dG*d[5mC]*dA*dG*dA*dT*eA*eT*eA*eG*eG) [compound 416443]	17%
416452 (antisense e[5mC]*e[5mC]*eA*eA*e[5mC]*dA*dA*d[5mC]*dA*dG*dG*dA*d[5mC]*d[5mC]*dT*eG*e[5mC]*e[5mC]*eA*eT) [compound 416452]	19%
416430 (antisense eG*e[5mC]*eA*eG*e[5mC]*dT*d[5mC]*d[5mC]*dT*d[5mC]*d[5mC]*dA*dG*dG*dA*eA*e[5mC]*eG*e[5mC]*eG) [compound 416430]	52%
416552 (antisense eT*e[5mC]*eT*eG*e[5mC]*dA*d[5mC]*dA*dG*dG*dG*dT*dA*dG*dA*e[5mC]*e[5mC]*e[5mC]*eT*e[5mC]) [compound 416552]	46%
416546 (antisense e[5mC]*e[5mC]*eA*eG*eG*d[5mC]*dT*dG*dG*dT*dT*dT*dG*dG*dA*eG*eA*eA*eA*e[5mC]) [compound 416546]	21%
416497 (antisense e[5mC]*eG*eT*eG*e[5mC]*dA*dG*dG*dT*dG*dT*dT*dA*dA*dG*eG*eT*eG*eT*eG) [compound 416497]	0%
416553 (antisense eG*eG*eT*eT*e[5mC]*dT*d[5mC]*dT*dG*d[5mC]*dA*d[5mC]*dA*dG*dG*eG*eT*eA*eG*eA) [compound 416553]	56%
416487 (antisense eG*e[5mC]*eA*eG*eG*dT*dG*d[5mC]*dT*d[5mC]*d[5mC]*d[5mC]*dA*dG*dG*eG*eT*e[5mC]*eT*e[5mC]) [compound 416487]	39%
416540 (antisense eG*eG*eA*e[5mC]*eT*dG*dG*dT*dG*dT*d[5mC]*dA*dT*d[5mC]*dT*eG*eG*eG*eA*e[5mC]) [compound 416540]	38%
416511 (antisense eT*eT*eG*e[5mC]*eT*dG*dG*dG*dA*dG*dG*dA*d[5mC]*dG*dA*eG*eG*e[5mC]*e[5mC]*eT) [compound 416511]	35%
416473 (antisense e[5mC]*e[5mC]*e[5mC]*eT*eG*d[5mC]*d[5mC]*d[5mC]*d[5mC]*dT*d[5mC]*dT*dG*dT*d[5mC]*e[5mC]*eA*eG*e[5mC]*eG) [compound 416473]	61%

same assay, conditions: oligonucleotides targeted to nucleobases 11830 to 11869 of SEQ ID NO: 1 (Table 9)

Substance	% Inhibition (human Factor 7 mRNA levels)
422247 (antisense eG*e[5mC]*dT*dG*dA*dG*dG*dA*dG*dA*d[5mC]*dA*dA*dT*dG*eG*eT*e[5mC]*eA*eG) [compound 422247]	36%
422088 (antisense eT*e[5mC]*eA*eG*eG*dG*d[5mC]*dT*dG*dG*dT*dT*dT*dT*dG*eG*eA*eG*eG*eA) [compound 422088]	8%
422162 (antisense eG*eA*e[5mC]*dA*dA*dT*dG*dG*dT*d[5mC]*dA*dG*dG*dG*d[5mC]*dT*dG*eG*eT*eT) [compound 422162]	59%
422091 (antisense eT*eG*eG*eT*e[5mC]*dA*dG*dG*dG*d[5mC]*dT*dG*dG*dT*dT*eT*eT*eG*eG*eA) [compound 422091]	42%

same assay, conditions: oligonucleotides targeted to nucleobases 13760 to 13789 of SEQ ID NO: 1 (Table 10)

Substance	% Inhibition (human Factor 7 mRNA levels)
422259 (antisense e[5mC]*eG*d[5mC]*d[5mC]*dA*d[5mC]*d[5mC]*d[5mC]*dG*d[5mC]*d[5mC]*dG*dG*d[5mC]*dT*e[5mC]*eT*eG*e[5mC]*eT) [compound 422259]	61%
422262 (antisense e[5mC]*eT*dG*d[5mC]*dG*d[5mC]*d[5mC]*dA*d[5mC]*d[5mC]*d[5mC]*dG*d[5mC]*d[5mC]*dG*eG*e[5mC]*eT*e[5mC]*eT) [compound 422262]	0%

same assay, conditions: oligonucleotides targeted to nucleobases 14707 to 14732 of SEQ ID NO: 1 (Table 11)

Substance	% Inhibition (human Factor 7 mRNA levels)
422278 (antisense eG*e[5mC]*d[5mC]*dT*dG*dA*dG*dG*d[5mC]*d[5mC]*dA*dG*d[5mC]*dA*dG*eA*eT*e[5mC]*eA*e[5mC]) [compound 422278]	64%
422200 (antisense e[5mC]*e[5mC]*eT*dG*dA*dG*dG*d[5mC]*d[5mC]*dA*dG*d[5mC]*dA*dG*dA*dT*d[5mC]*eA*e[5mC]*eG) [compound 422200]	58%
422132 (antisense eG*e[5mC]*eA*eG*e[5mC]*d[5mC]*dT*dG*dA*dG*dG*d[5mC]*d[5mC]*dA*dG*e[5mC]*eA*eG*eA*eT) [compound 422132]	54%

same assay, conditions: oligonucleotides targeted to nucleobases 15098 to 15122 of SEQ ID NO: 1 (Table 12)

Substance	% Inhibition (human Factor 7 mRNA levels)
422134 (antisense eG*e[5mC]*eA*e[5mC]*eA*d[5mC]*dA*dT*dG*dG*dA*dG*dT*d[5mC]*dA*eG*e[5mC]*eA*eT*e[5mC]) [compound 422134]	67%
